Measured values taken from publication PMC4518100, “Design and Synthesis of New Benzimidazole and Pyrimidine Derivatives as α-glucosidase Inhibitor” (Iranian Journal of Pharmaceutical Research : IJPR, 2015).

Assays:
[1] = molecular target: yeast α-glucosidase (Saccharomyces cerevisiae, UniProt P53341); test: Yeast α-glucosidase inhibition assay (pNPG substrate, absorbance at 405 nm); assay type: biochemical; conditions: qualitative statement
Procedure: (§1) In this study the inhibition study of both yeast and mammalian α-glucosidase were measured through the earlier reported bioassay method with minor changes ([4]). This test was carried out using the substrate p-nitrophenyl-α-D-glucopyranoside (pNPG), which is hydrolyzed by α-glucosidase to release the product p-nitrophenol, a color agent that can be monitored at 405 nm. For yeast α-glucosidase, mixture contained 20 µL of the enzyme (0.5 unit/mL), 120 µL of 0.1 M phosphate buffer (pH 6.9) and 10 µL of test sample at various concentrations. The mixed solution was incubated in 96-well plates at 37 °C for 15 min. After preincubation the enzymatic reaction was initiated by adding 20 µL of 5 mM pNPG solution in 0.1 M phosphate buffer (pH 6.9) and the reaction mixture was incubated for another 15 min at 37 °C. The reaction was terminated by adding 80 µL of 0.2 M sodium carbonate solution and then absorbance reading was recorded at 405 nm by microplate reader. The reaction system without tested samples was used as control and the system without α-glucosidase was used as blank for correcting the background absorbance. The inhibitory rate of sample on α-glucosidase was calculated by the following formula:
(§2) % Inhibition=control absorbance-sample absorbance/control absorbance×100

[2] = system: rat intestinal α-glucosidase; test: Mammalian α-glucosidase inhibition assay (rat intestinal acetone powder, pNPG substrate); assay type: biochemical; conditions: for inhibition of rat intestinal α-glucosidase (in words): qualitative statement; for IC50: rat intestinal α-glucosidase, pNPG, pH 6.9, 37 °C, na: no activity
Procedure: as §1, §2
The mammalian α-glucosidase were prepared from rat intestinal acetone powder (1 g), which was extracted by 25 mL of 0.1 M phosphate buffer (pH 6.9) containing 5 mM EDTA at ambient temperature. After sonication (10 min) and centrifugation (10000×g, 20 min) the obtained supernatant was dialyzed against […] phosphate buffer (pH 6.9) for 24 h. The final supernatant was used for the assay. The mammalian α-glucosidase inhibition test was carried out in the same manner as that of the yeast α-glucosidase.

Sequence of yeast α-glucosidase (P53341 whole entry): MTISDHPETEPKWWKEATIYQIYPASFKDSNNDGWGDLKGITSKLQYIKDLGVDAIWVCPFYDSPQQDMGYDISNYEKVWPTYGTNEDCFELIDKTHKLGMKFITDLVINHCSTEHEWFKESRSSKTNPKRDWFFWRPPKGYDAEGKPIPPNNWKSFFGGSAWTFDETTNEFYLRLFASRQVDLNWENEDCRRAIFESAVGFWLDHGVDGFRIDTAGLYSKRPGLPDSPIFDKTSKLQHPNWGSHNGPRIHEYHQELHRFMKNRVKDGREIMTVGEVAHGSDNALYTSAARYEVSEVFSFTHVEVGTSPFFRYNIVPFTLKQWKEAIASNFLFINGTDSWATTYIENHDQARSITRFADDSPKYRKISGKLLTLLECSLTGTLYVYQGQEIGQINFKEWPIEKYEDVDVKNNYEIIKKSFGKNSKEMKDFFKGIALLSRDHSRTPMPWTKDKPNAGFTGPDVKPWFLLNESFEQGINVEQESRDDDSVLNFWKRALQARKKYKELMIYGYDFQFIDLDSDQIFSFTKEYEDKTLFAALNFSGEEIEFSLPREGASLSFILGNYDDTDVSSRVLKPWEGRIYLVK

SMILES	IC50 [2] [µM]	inhibition of yeast α-glucosidase (in words) [1]	inhibition of rat intestinal α-glucosidase (in words) [2]
O=C1c2ccccc2C(=O)N1CC1=Nc2cccc3cccc(c23)N1 [5a, 2-((1H-perimidin-2-yl)methyl)isoindoline-1,3-dione]		did not exert good inhibition activity	did not exert good inhibition activity
O=C1c2ccccc2C(=O)N1C(Cc1ccccc1)c1nc2ccccc2[nH]1 (stereo not shown) [4c, 2-(1-(1H-benzo(d)imidazol-2-yl)-2-phenylethyl)isoindoline-1,3-dione]	48.5 ± 2.3	significantly higher inhibitory action than acarbose	significantly higher inhibitory action than acarbose
O=C1c2ccccc2C(=O)N1C(Cc1ccc(O)cc1)c1nc2ccccc2[nH]1 (stereo not shown) [4d, 2-(1-(1H-benzo(d)imidazol-2-yl)-2-(4-hydroxyphenyl)ethyl)isoindoline-1,3-dione]	36.7 ± 2.9	significantly higher inhibitory action than acarbose	significantly higher inhibitory action than acarbose
C[C@H]1O[C@H](O[C@H]2[C@H](O)[C@@H](O)[C@@H](O[C@H]3[C@H](O)[C@@H](O)C(O)O[C@@H]3CO)O[C@@H]2CO)[C@H](O)[C@@H](O)[C@@H]1N[C@H]1C=C(CO)[C@@H](O)[C@H](O)[C@H]1O (stereo partly shown) [Acarbose, reference compound]	37.5 ± 1.4		
CC(C)CC(C1=Nc2cccc3cccc(c23)N1)N1C(=O)c2ccccc2C1=O (stereo not shown) [5e, 2-(3-methyl-1-(1H-perimidin-2-yl)butyl)isoindoline-1,3-dione]		did not exert good inhibition activity	did not exert good inhibition activity
CCC(C)C(C1=Nc2cccc3cccc(c23)N1)N1C(=O)c2ccccc2C1=O (stereo not shown) [5b, 2-(2-methyl-1-(1H-perimidin-2-yl)butyl)isoindoline-1,3-dione]		did not exert good inhibition activity	did not exert good inhibition activity

The next lines start with results.

IC50 [2] [µM]	SMILES	inhibition of yeast α-glucosidase (in words) [1]	inhibition of rat intestinal α-glucosidase (in words) [2]
21.8 ± 1.7	O=C1c2ccccc2C(=O)N1C(Cc1ccc(O)cc1)C1=Nc2cccc3cccc(c23)N1 (stereo not shown) [5d, 2-(2-(4-hydroxyphenyl)-1-(1H-perimidin-2-yl)ethyl)isoindoline-1,3-dione]	significantly higher inhibitory action than acarbose	significantly higher inhibitory action than acarbose
35.9 ± 2.3	O=C1c2ccccc2C(=O)N1C(Cc1ccccc1)C1=Nc2cccc3cccc(c23)N1 (stereo not shown) [5c, 2-(1-(1H-perimidin-2-yl)-2-phenylethyl)isoindoline-1,3-dione]	significantly higher inhibitory action than acarbose	significantly higher inhibitory action than acarbose
